Measured values: patent publication US20250057958A1, “CYTOTOXICITY TARGETING CHIMERAS FOR CCR2-EXPRESSING CELLS” (GLAXOSMITHKLINE INTELLECTUAL PROPERTY DEVELOPMENT LIMITED, priority 2022, published 2025)

Columns and labels:
[1] = molecular target: T1, CHOK1 cells engineered to overexpress human CCR2 (Homo sapiens, UniProt P41597); assay: Antibody dependent cellular cytotoxicity (ADCC) reporter assay; format: cell-based; conditions: with anti-cotinine antibody (SEQ ID NO: 11/12, human IgG1 Fc S239D/I332E); Jurkat FcγRIIIa NFAT-luciferase reporter cells; 12-18 hours; average if more than one run; read-out: ADCC Reporter Assay pEC50 (converted)
T1 construct: expressed in transfected cells; host or cells: CHOK1 cells
Protocol: An antibody dependent cellular cytoxocity reporter assay was conducted using the following four assay components: (i) ARM compound of Formula (I) targeting CCR2 (concentrations ranging from 1 pM to 10 μM) (ii) anti-cotinine antibody having a heavy chain sequence of SEQ ID NO: 11 and a light chain sequence of SEQ ID NO: 12 (rabbit variable region with human IgG1 Fc domain containing a DE mutation (S239D/I332E)) (concentrations ranging from 0.01 μg/mL to 200 μg/mL); (iii) target cells: CHOK1 cells engineered to overexpress either human CCR2 (typically 1000-20,000 cells perwell) and (iv) reporter cells: Jurkat cells engineered to express FcγRIIIa with the reporter gene luciferase under the control of the NFAT promoter (typically 3000-75,000 cells per well). Reagents were combined in a final volume of 20 μL in a 384—well tissue culture treated plate. All four assay components were incubated together for about 12-18 hours. Thereafter, BioGlo Detection reagent (Promega) was added to the wells to lyse the cells and provide a substrate for the luciferase reporter protein. Luminescence signal was measured on a microplate reader and signal:background was calculated by dividing the signal of a test well by the signal obtained when no ARM compound of Formula (I) was added. EC50 calculations were done using Graphpad Prism Software, specifically a nonlinear regression curve fit (Y=Bottom+(Top−Bottom)/(1+10 ^((Log EC50−X)*HillSlope))).
ARMs compounds of Formula (I) of the invention were tested for ADCC activity in the above assay in or more experimental runs and the results are shown in Table 3 below. Potency of the compounds of Formula (I) of the invention is reported as a pEC50 value. The pEC50 value is the negative log of the EC50 value, wherein the EC50 value is the half maximal effective concentration measured in molar (M). For compounds tested in more than one experimental run, the pEC50 value is reported as an average.

[2] = molecular target: human alpha1 nicotinic acetylcholine (nACh) receptor (Homo sapiens, UniProt P02708+Q07001); assay: Nicotinic acetylcholine receptor antagonism assay (IONFlux automated patch clamp); format: cell-based; conditions: for IC50: nAChR antagonism, stimulated with ACh, average if more than one run
human alpha1 nicotinic acetylcholine (nACh) receptor, sequence (P02708 21-457): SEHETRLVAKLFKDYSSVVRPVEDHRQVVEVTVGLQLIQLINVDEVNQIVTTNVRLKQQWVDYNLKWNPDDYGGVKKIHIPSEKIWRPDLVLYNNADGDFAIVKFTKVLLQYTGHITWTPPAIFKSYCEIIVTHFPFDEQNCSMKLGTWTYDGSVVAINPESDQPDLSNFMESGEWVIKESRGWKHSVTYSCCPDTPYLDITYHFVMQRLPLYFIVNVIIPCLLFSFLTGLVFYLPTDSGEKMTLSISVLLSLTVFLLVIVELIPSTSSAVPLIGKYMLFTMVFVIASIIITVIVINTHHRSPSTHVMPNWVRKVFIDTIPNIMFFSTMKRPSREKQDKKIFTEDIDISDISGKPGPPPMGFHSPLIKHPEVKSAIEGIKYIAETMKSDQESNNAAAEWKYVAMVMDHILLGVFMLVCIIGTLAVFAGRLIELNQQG
human alpha1 nicotinic acetylcholine (nACh) receptor, sequence (P11230 24-501 partner): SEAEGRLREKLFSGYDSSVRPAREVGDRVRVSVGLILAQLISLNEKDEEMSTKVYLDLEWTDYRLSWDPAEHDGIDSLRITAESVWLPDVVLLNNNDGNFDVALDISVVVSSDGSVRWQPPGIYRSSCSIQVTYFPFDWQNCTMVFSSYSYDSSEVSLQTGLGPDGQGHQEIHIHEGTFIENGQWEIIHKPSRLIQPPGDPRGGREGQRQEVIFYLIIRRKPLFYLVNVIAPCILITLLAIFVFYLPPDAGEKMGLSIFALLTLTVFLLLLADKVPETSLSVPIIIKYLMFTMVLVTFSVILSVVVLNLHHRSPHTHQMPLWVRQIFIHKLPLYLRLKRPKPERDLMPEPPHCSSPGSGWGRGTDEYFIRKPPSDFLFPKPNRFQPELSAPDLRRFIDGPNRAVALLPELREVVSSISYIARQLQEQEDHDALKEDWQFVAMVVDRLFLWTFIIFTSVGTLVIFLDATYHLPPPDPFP
human alpha1 nicotinic acetylcholine (nACh) receptor, sequence (Q07001 22-517): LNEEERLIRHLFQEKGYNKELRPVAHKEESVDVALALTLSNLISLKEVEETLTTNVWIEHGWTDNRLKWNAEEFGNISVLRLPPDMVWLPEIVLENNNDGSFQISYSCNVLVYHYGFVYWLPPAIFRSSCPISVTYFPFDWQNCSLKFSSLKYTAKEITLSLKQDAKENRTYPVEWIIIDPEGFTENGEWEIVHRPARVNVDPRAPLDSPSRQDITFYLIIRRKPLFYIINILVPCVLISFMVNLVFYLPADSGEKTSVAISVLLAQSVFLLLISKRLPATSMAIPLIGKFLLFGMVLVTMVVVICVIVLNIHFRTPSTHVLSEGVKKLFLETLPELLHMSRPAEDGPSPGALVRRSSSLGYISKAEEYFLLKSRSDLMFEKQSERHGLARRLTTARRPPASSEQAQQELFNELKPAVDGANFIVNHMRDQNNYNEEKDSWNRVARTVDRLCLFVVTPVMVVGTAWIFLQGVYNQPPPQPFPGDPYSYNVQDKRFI
From the text: Cells expressing human alpha1 nicotinic acetylcholine (nACh) receptor (nAChR) were washed and dissociated using Trypsin containing buffer. Cells were then washed and seeded at a density of 3-5 million cells/mL and allowed to grow for 3 days. […] The receptor was then stimulated via addition of acetylcholine (ACh) and activation of the receptor was monitored via the IONFlux automated patch clamp system. IonFlux Data Analyzer software was utilized to perform leak subtraction and measure (min) peak current amplitude.
Data processing: (1) Current values recorded for vehicle only applications in individual traps/patterns were subtracted from corresponding current amplitude values for control, test article and control+test article. (2) Control response was calculated as % of the average response of the 3rd out of total 3 ACh (10 mM) applications alone. In rare situations, if the 3rd ACh response was obscured due to technical artifacts, the 2nd and/or 1st ACh (10 mM) application was considered as control. The peak current amplitude generated in the presence of each test article concentration was then used to calculate the % inhibition as compared to control response (10 mM ACh alone). These estimates were further corrected for vehicle response and run down corrected by normalizing with time matched control responses (10 mM ACh alone). The corrected percentages were then fit with a non-linear function in GraphPad Prism 6 (or later versions) to determine the IC50.
Exclusion criteria: (i) any n's with poor recording quality, (ii) control current amplitude <500 pA or (iii) significant outliers, as determined by the Grubbs' test.
ARMs compounds of Formula (I) of the invention were tested for antagonism of the nAChR in the above assay in […] experimental runs and the results are shown in Table 5 below. Antagonistic activity of the compounds of Formula (I) of the invention is reported as an IC50 value (half maximal inhibitory concentration) and the maximum percentage antagonism observed at the highest concentration of compound of Formula (I) tested, as indicated in Table 5. For compounds tested in more than one experimental run, the IC50 value is reported as an average.

SMILES | EC50 [1] [nM] | IC50 [2] [nM] | further results
CC(=O)N[C@@H]1C[C@H](NC(C)(C)C)CC[C@@H]1N1CC[C@H](Nc2nc(NCC3CCN(C(=O)[C@H]4CC[C@H](NC(=O)CCCO[C@H]5CC[C@H](OCCNC(=O)[C@H]6CC(=O)N(C)[C@@H]6c6cccnc6)CC5)CC4)CC3)nc3ccc(C(F)(F)F)cc23)C1=O [Example 2, (2S,3S)-N-(2-(((1R,4S)-4-(4-(((1S,4R)-4-(4-(((4-(((S)-1-((1S,2R,4R)-2-Acetamido-4-(tert-butylamino)cyclohexyl)-2-oxopyrrolidin-3-yl)amino)-6-(trifluoromethyl)quinazolin-2-yl)amino)methyl)piperidine-1-carbonyl)cyclohexyl)amino)-4-oxobutoxy)cyclohexyl)oxy)ethyl)-1-methyl-5-oxo-2-(pyridin-3-yl)pyrrolidine-3-carboxamide] | 0.316 | > 11100 | Emax at 11.11 µM ([2]; maximum percentage antagonism at highest concentration tested, 11.11 μM, read-out: Maximum Response (%)): 9%
CC(=O)N[C@@H]1C[C@H](NC(C)(C)C)CC[C@@H]1N1CC[C@H](Nc2nc(CCNC(=O)[C@H]3CC[C@H](NC(=O)CCCO[C@H]4CC[C@H](OCCNC(=O)[C@H]5CC(=O)N(C)[C@@H]5c5cccnc5)CC4)CC3)nc3ccc(C(F)(F)F)cc23)C1=O [Example 4, (2S,3S)-N-(2-(((1R,4S)-4-(4-(((1S,4R)-4-((2-(4-(((S)-1-((1S,2R,4R)-2-Acetamido-4-(tert-butylamino)cyclohexyl)-2-oxopyrrolidin-3-yl)amino)-6-(trifluoromethyl)quinazolin-2-yl)ethyl)carbamoyl)cyclohexyl)amino)-4-oxobutoxy)cyclohexyl)oxy)ethyl)-1-methyl-5-oxo-2-(pyridin-3-yl)pyrrolidine-3-carboxamide] | 0.251 | > 100000 | Emax at 100 µM ([2]; maximum percentage antagonism at highest concentration tested, 100 μM, read-out: Maximum Response (%)): 48%
CC(=O)N[C@@H]1C[C@H](N(C)C(C)C)CC[C@@H]1N1CC[C@H](Nc2nc(CCCNC(=O)[C@H]3CC[C@H](NC(=O)CCCO[C@H]4CC[C@H](OCCNC(=O)[C@H]5CC(=O)N(C)[C@@H]5c5cccnc5)CC4)CC3)nc3ccc(C(F)(F)F)cc23)C1=O [Example 6, (2S,3S)-N-(2-(((1R,4S)-4-(4-(((1S,4R)-4-((3-(4-(((S)-1-((1S,2R,4R)-2-Acetamido-4-(isopropyl(methyl)amino)cyclohexyl)-2-oxopyrrolidin-3-yl)amino)-6-(trifluoromethyl)quinazolin-2-yl)propyl)carbamoyl)cyclohexyl)amino)-4-oxobutoxy)cyclohexyl)oxy)ethyl)-1-methyl-5-oxo-2-(pyridin-3-yl)pyrrolidine-3-carboxamide] | 0.158 | > 33300 | Emax at 33.3 µM ([2]; maximum percentage antagonism at highest concentration tested, 33.3 μM, read-out: Maximum Response (%)): 48%
CC(=O)N[C@@H]1C[C@H](NC(C)(C)C)CC[C@@H]1N1CC[C@H](Nc2nc(OC3CCN(C(=O)[C@H]4CC[C@H](NC(=O)CCCO[C@H]5CC[C@H](OCCNC(=O)[C@H]6CC(=O)N(C)[C@@H]6c6cccnc6)CC5)CC4)CC3)nc3ccc(C(F)(F)F)cc23)C1=O [Example 7, (2S,3S)-N-(2-(((1R,4S)-4-(4-(((1S,4R)-4-(4-((4-(((S)-1-((1S,2R,4R)-2-acetamido-4-(tert-butylamino)cyclohexyl)-2-oxopyrrolidin-3-yl)amino)-6-(trifluoromethyl)quinazolin-2-yl)oxy)piperidine-1-carbonyl)cyclohexyl)amino)-4-oxobutoxy)cyclohexyl)oxy)ethyl)-1-methyl-5-oxo-2-(pyridin-3-yl)pyrrolidine-3-carboxamide] | 79.4 | – | –
CC(=O)N[C@@H]1C[C@H](NC(C)(C)C)CC[C@@H]1N1CC[C@H](Nc2nc(OCC3CCN(C(=O)[C@H]4CC[C@H](NC(=O)CCCO[C@H]5CC[C@H](OCCNC(=O)[C@H]6CC(=O)N(C)[C@@H]6c6cccnc6)CC5)CC4)CC3)nc3ccc(C(F)(F)F)cc23)C1=O [Example 8, (2S,3S)-N-(2-(((1R,4S)-4-(4-(((1S,4R)-4-(4-(((4-(((S)-1-((1S,2R,4R)-2-Acetamido-4-(tert-butylamino)cyclohexyl)-2-oxopyrrolidin-3-yl)amino)-6-(trifluoromethyl)quinazolin-2-yl)oxy)methyl)piperidine-1-carbonyl)cyclohexyl)amino)-4-oxobutoxy)cyclohexyl)oxy)ethyl)-1-methyl-5-oxo-2-(pyridin-3-yl)pyrrolidine-3-carboxamide] | 50.1 | – | –
CC(=O)N[C@@H]1C[C@H](NC(C)(C)C)CC[C@@H]1N1CC[C@H](Nc2nc(C3CCN(C(=O)[C@H]4CC[C@H](NC(=O)CCCO[C@H]5CC[C@H](OCCNC(=O)[C@H]6CC(=O)N(C)[C@@H]6c6cccnc6)CC5)CC4)CC3)nc3ccc(C(F)(F)F)cc23)C1=O [Example 9, (2S,3S)-N-(2-(((1R,4S)-4-(4-(((1S,4R)-4-(4-(4-(((S)-1-((1S,2R,4R)-2-Acetamido-4-(tert-butylamino)cyclohexyl)-2-oxopyrrolidin-3-yl)amino)-6-(trifluoromethyl)quinazolin-2-yl)piperidine-1-carbonyl)cyclohexyl)amino)-4-oxobutoxy)cyclohexyl)oxy)ethyl)-1-methyl-5-oxo-2-(pyridin-3-yl)pyrrolidine-3-carboxamide] | 0.631 | > 11100 | Emax at 11.1 µM ([2]; maximum percentage antagonism at highest concentration tested, 11.1 μM, read-out: Maximum Response (%)): 2%
CC(=O)N[C@@H]1C[C@H](NC(C)(C)C)CC[C@@H]1N1CC[C@H](Nc2nc(NCCNC(=O)[C@H]3CC[C@H](NC(=O)CCCO[C@H]4CC[C@H](OCCNC(=O)[C@H]5CC(=O)N(C)[C@@H]5c5cccnc5)CC4)CC3)nc3ccc(C(F)(F)F)cc23)C1=O [Example 12, (2S,3S)-N-(2-(((1R,4S)-4-(4-(((1S,4R)-4-((2-((4-(((S)-1-((1S,2R,4R)-2-Acetamido-4-(tert-butylamino)cyclohexyl)-2-oxopyrrolidin-3-yl)amino)-6-(trifluoromethyl)quinazolin-2-yl)amino)ethyl)carbamoyl)cyclohexyl)amino)-4-oxobutoxy)cyclohexyl)oxy)ethyl)-1-methyl-5-oxo-2-(pyridin-3-yl)pyrrolidine-3-carboxamide] | 0.251 | – | –
CC(=O)N[C@@H]1C[C@H](NC(C)(C)C)CC[C@@H]1N1CC[C@H](Nc2nc(NC3CCN(C(=O)[C@H]4CC[C@H](NC(=O)CCCO[C@H]5CC[C@H](OCCNC(=O)[C@H]6CC(=O)N(C)[C@@H]6c6cccnc6)CC5)CC4)CC3)nc3ccc(C(F)(F)F)cc23)C1=O [Example 13, (2S,3S)-N-(2-(((1R,4S)-4-(4-(((1S,4R)-4-(4-((4-(((S)-1-((1S,2R,4R)-2Acetamido-4-(tert-butylamino)cyclohexyl)-2-oxopyrrolidin-3-yl)amino)-6-(trifluoromethyl)quinazolin-2-yl)amino)piperidine-1-carbonyl)cyclohexyl)amino)-4-oxobutoxy)cyclohexyl)oxy)ethyl)-1-methyl-5-oxo-2-(pyridin-3-yl)pyrrolidine-3-carboxamide] | 0.316 | 10100 | Emax at 33.33 µM ([2]; maximum percentage antagonism at highest concentration tested, 33.33 μM, read-out: Maximum Response (%)): 68%
